Data: PubChem BioAssay AID330 (DTP/NCI, 2004)
Several values for one entry are separate records, joined by “and”; a condition that tells them apart may be missing. Equal values may be shown once. Inconclusive results and toxic doses are left out.

Test system: P388 leukemia ip, CD2F1 mice, survival T/C
Test: NCI In Vivo Anticancer Drug Screen. Data for tumor model P388 Leukemia (intraperitoneal) in CD2F1 (CDF1) mice
Conditions: endpoint: median survival time, higher = longer survival
Method in brief: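 Mice carrying the transplanted tumor received test compound or vehicle. Survival was recorded in each group, and the value is the treated-group measurement divided by that of the vehicle-treated control group.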

[1] = dose: 25.0 mg/kg/injection, schedule: Q01DX009 (ip), vehicle: Klucel (hydroxypropylcellulose) (HPC)
[2] = dose: 50.0 mg/kg/injection, schedule: Q01DX009 (ip), vehicle: Klucel (hydroxypropylcellulose) (HPC)
[3] = dose: 100.0 mg/kg/injection, schedule: Q01DX009 (ip), vehicle: Klucel (hydroxypropylcellulose) (HPC)
[4] = dose: 200.0 mg/kg/injection, schedule: Q01DX009 (ip), vehicle: Klucel (hydroxypropylcellulose) (HPC)
[5] = dose: 60.0 mg/kg/injection, schedule: Q01DX005 (ip), vehicle: Klucel (hydroxypropylcellulose) (HPC)
[6] = dose: 120.0 mg/kg/injection, schedule: Q01DX005 (ip), vehicle: Klucel (hydroxypropylcellulose) (HPC)
[7] = dose: 50.0 mg/kg/injection, schedule: Q01DX005 (ip), vehicle: Klucel (hydroxypropylcellulose) (HPC)
[8] = dose: 100.0 mg/kg/injection, schedule: Q01DX005 (ip), vehicle: Klucel (hydroxypropylcellulose) (HPC)
[9] = dose: 200.0 mg/kg/injection, schedule: Q01DX005 (ip), vehicle: Klucel (hydroxypropylcellulose) (HPC)
[10] = dose: 100.0 mg/kg/injection, schedule: Q01DX009 (ip), vehicle: saline with Tween-80
[11] = dose: 200.0 mg/kg/injection, schedule: Q01DX009 (ip), vehicle: saline with Tween-80
[12] = dose: 400.0 mg/kg/injection, schedule: Q01DX009 (ip), vehicle: Klucel (hydroxypropylcellulose) (HPC)

For `Nc1cc(N)n(N)c(=S)n1`, the T/C [1] was 103 % of control, the T/C [2] was 100 % of control and the T/C (dose: 50.0 mg/kg/injection, schedule: Q04DX003 (ip), vehicle: saline with Tween-80) was 104 % of control. The T/C [3] was 110 % of control, the T/C (dose: 100.0 mg/kg/injection, schedule: Q04DX003 (ip), vehicle: saline with Tween-80) was 103 % of control and the T/C [4] was 108 % of control. For the same compound, the T/C (dose: 200.0 mg/kg/injection, schedule: Q04DX003 (ip), vehicle: saline with Tween-80) was 99 % of control and the T/C (dose: 400.0 mg/kg/injection, schedule: Q04DX003 (ip), vehicle: saline with Tween-80) was 100 % of control.
For `COc1ccc(C(c2cc3c(cc2O)OCO3)N2CCN(C(c3cc4c(cc3O)OCO4)c3ccc(OC)cc3OC)CC2)c(OC)c1` (centres undefined), the T/C [5] was 88 % of control and the T/C [6] was 86 % of control.
In the case of `CN(C)C[N+](C)(C)Cc1ccc(C[N+](C)(C)C[N+](C)(C)Cc2ccc(CCl)cc2)cc1`, the T/C (dose: 0.19 mg/kg/injection, schedule: Q04DX003 (ip), vehicle: saline) is reported as 100 % of control, the T/C (dose: 0.39 mg/kg/injection, schedule: Q04DX003 (ip), vehicle: saline) is reported as 94 % of control and the T/C (dose: 0.78 mg/kg/injection, schedule: Q04DX003 (ip), vehicle: saline) is reported as 103 % of control and 88 % of control. The T/C (dose: 1.56 mg/kg/injection, schedule: Q04DX003 (ip), vehicle: saline) was 88 % of control and the T/C (dose: 3.12 mg/kg/injection, schedule: Q04DX003 (ip), vehicle: saline) was 99 % of control.
With `Cc1ccc(SC(=O)c2cccnc2Oc2ccccc2)cc1` the T/C [7] was 90 % of control, the T/C [8] was 99 % of control and the T/C [9] was 96 % of control.
With `CC(C)(Oc1ccc(Cl)cc1)C(=O)NC(CS(C)(=O)=O)C(=O)O` (centres undefined) the T/C (dose: 50.0 mg/kg/injection, schedule: Q01DX005 (ip), vehicle: saline) was 99 % of control, the T/C (dose: 100.0 mg/kg/injection, schedule: Q01DX005 (ip), vehicle: saline) was 99 % of control and the T/C (dose: 200.0 mg/kg/injection, schedule: Q01DX005 (ip), vehicle: saline) was 100 % of control.
In the case of `O=Cc1ncccc1[N+](=O)[O-]`, the T/C (dose: 50.0 mg/kg/injection, schedule: Q01DX009 (ip), vehicle: saline + Tween-80 + alcohol) is reported as 116 % of control and the T/C (dose: 100.0 mg/kg/injection, schedule: Q01DX009 (ip), vehicle: saline + Tween-80 + alcohol) is reported as 115 % of control.
`Nc1nccc2c1ncn2C1OC(CO)C(O)C1O` (centres undefined) was tested, and the T/C (dose: 4.67 mg/kg/injection, schedule: Q03HX024 (ip), vehicle: saline with Tween-80) was 110 % of control, the T/C (dose: 4.69 mg/kg/injection, schedule: Q03HX024 (ip), vehicle: saline with Tween-80) was 114 % of control and the T/C (dose: 9.38 mg/kg/injection, schedule: Q03HX024 (ip), vehicle: saline with Tween-80) was 111 % of control and 112 % of control. For the same compound, the T/C (dose: 12.5 mg/kg/injection, schedule: Q01DX009 (ip), vehicle: saline with Tween-80) was 94 % of control and 97 % of control, the T/C (dose: 18.75 mg/kg/injection, schedule: Q03HX024 (ip), vehicle: saline with Tween-80) was 97 % of control and the T/C (dose: 25.0 mg/kg/injection, schedule: Q01DX009 (ip), vehicle: saline with Tween-80) was 92 % of control and 93 % of control. The T/C (dose: 37.5 mg/kg/injection, schedule: Q03HX024 (ip), vehicle: saline with Tween-80) was 112 % of control and 117 % of control, the T/C [10] was 88 % of control and 94 % of control and the T/C [11] was 86 % of control.
For `Cc1ccc(S(=O)(=O)OCCN(CCOS(=O)(=O)c2ccc(C)cc2)S(=O)(=O)c2ccc(C)cc2)cc1`, the T/C [2] was 108 % of control, the T/C [3] was 100 % of control and the T/C [4] was 102 % of control. The T/C [12] was 95 % of control.
`Clc1ccc(-c2nnc(-c3ccccc3)o2)cc1Cl` was tested, and the T/C [2] was 112 % of control, the T/C [3] was 105 % of control and the T/C [4] was 112 % of control. For the same compound, the T/C [12] was 100 % of control.
With `C/C=C/N=NNc1ccc(OC)cc1` the T/C (dose: 100.0 mg/kg/injection, schedule: Q04DX003 (ip), vehicle: saline + Tween-80 + alcohol) was 105 % of control and the T/C (dose: 200.0 mg/kg/injection, schedule: Q04DX003 (ip), vehicle: saline + Tween-80 + alcohol) was 99 % of control.
`O=C1c2c(O)ccc(O)c2C(=O)c2c(NCCN(CCO)Cc3ccccc3)ccc(NCCN(CCO)Cc3ccccc3)c21` was tested, and the T/C (dose: 0.62 mg/kg/injection, schedule: Q01DX009 (ip), vehicle: saline with Tween-80) was 118 % of control, the T/C (dose: 1.25 mg/kg/injection, schedule: Q01DX009 (ip), vehicle: saline with Tween-80) was 106 % of control and the T/C (dose: 2.5 mg/kg/injection, schedule: Q01DX009 (ip), vehicle: saline with Tween-80) was 97 % of control. For the same compound, the T/C (dose: 5.0 mg/kg/injection, schedule: Q01DX009 (ip), vehicle: saline with Tween-80) was 109 % of control, the T/C (dose: 10.0 mg/kg/injection, schedule: Q01DX009 (ip), vehicle: saline with Tween-80) was 86 % of control and the T/C (dose: 20.0 mg/kg/injection, schedule: Q01DX009 (ip), vehicle: saline with Tween-80) was 103 % of control. The T/C (dose: 40.0 mg/kg/injection, schedule: Q01DX009 (ip), vehicle: distilled water + Tween-80) was 101 % of control, the T/C (dose: 40.0 mg/kg/injection, schedule: Q01DX009 (ip), vehicle: saline with Tween-80) was 103 % of control and the T/C (dose: 80.0 mg/kg/injection, schedule: Q01DX009 (ip), vehicle: distilled water + Tween-80) was 123 % of control. For the same compound, the T/C (dose: 80.0 mg/kg/injection, schedule: Q01DX009 (ip), vehicle: saline with Tween-80) was 106 % of control, the T/C (dose: 160.0 mg/kg/injection, schedule: Q01DX009 (ip), vehicle: distilled water + Tween-80) was 166 % of control and the T/C (dose: 160.0 mg/kg/injection, schedule: Q01DX009 (ip), vehicle: saline with Tween-80) was 163 % of control. The T/C (dose: 320.0 mg/kg/injection, schedule: Q01DX009 (ip), vehicle: distilled water + Tween-80) was 194 % of control.
In the case of `COc1ccccc1N=C(C)C1C(=O)c2ccccc2C1=O`, the T/C [7] is reported as 104 % of control, the T/C [8] is reported as 104 % of control and the T/C [9] is reported as 100 % of control.
For `O=C1C(c2ccccc2)=C(c2ccccc2)/C1=C\c1ccc(Cl)cc1Cl`, the T/C [2] was 87 % of control and the T/C [3] was 87 % of control.
`COc1cccc2c1C(=O)c1c(O)c3c(c(O)c1C2=O)C[C@@](O)(/C(C)=N\O)C[C@@H]3OC1CC(N)C(O)C(C)O1` (some centres undefined) was tested, and the T/C (dose: 3.13 mg/kg/injection, schedule: Q01DX009 (ip), vehicle: water) was 154 % of control, the T/C (dose: 6.25 mg/kg/injection, schedule: Q01DX009 (ip), vehicle: water) was 165 % of control and the T/C (dose: 6.25 mg/kg/injection, schedule: Q04DX003 (ip), vehicle: water) was 115 % of control and 124 % of control. The T/C (dose: 12.5 mg/kg/injection, schedule: Q01DX009 (ip), vehicle: water) was 183 % of control, the T/C (dose: 12.5 mg/kg/injection, schedule: Q04DX003 (ip), vehicle: water) was 116 % of control and 117 % of control and the T/C (dose: 25.0 mg/kg/injection, schedule: Q01DX009 (ip), vehicle: water) was 100 % of control. For the same compound, the T/C (dose: 25.0 mg/kg/injection, schedule: Q04DX003 (ip), vehicle: water) was 123 % of control, the T/C (dose: 100.0 mg/kg/injection, schedule: Q04DX003 (ip), vehicle: water) was 119 % of control and the T/C (dose: 200.0 mg/kg/injection, schedule: Q04DX003 (ip), vehicle: water) was 101 % of control.
For `CC(=O)c1cc2cc3c4c(c2oc1=O)CCCN4CCC3`, the T/C [5] was 104 % of control and the T/C [6] was 112 % of control.
With `O=C(O)CNC(=O)C(CSCc1ccccc1)NC(=O)OCc1ccccc1` (centres undefined) the T/C [7] was 103 % of control, the T/C (dose: 50.0 mg/kg/injection, schedule: Q01DX009 (ip), vehicle: saline with Tween-80) was 101 % of control and the T/C [8] was 102 % of control. The T/C [10] was 99 % of control, the T/C [9] was 100 % of control and the T/C [11] was 99 % of control.
With `C=C1C(=O)OC2CC1C(OC(C)=O)CC1(C)OC1CCC1(C)OC1CCC2(C)O` (centres undefined) the T/C (dose: 6.26 mg/kg/injection, schedule: Q01DX009 (ip), vehicle: Klucel (hydroxypropylcellulose) (HPC)) was 119 % of control, the T/C (dose: 12.5 mg/kg/injection, schedule: Q01DX009 (ip), vehicle: Klucel (hydroxypropylcellulose) (HPC)) was 117 % of control and the T/C [1] was 123 % of control.
For `Cc1cccc2c(-c3ccccc3)c3cccc[n+]3cc12`, the T/C (dose: 0.78 mg/kg/injection, schedule: Q01DX005 (ip), vehicle: Klucel (hydroxypropylcellulose) (HPC)) was 100 % of control and 103 % of control, the T/C (dose: 1.56 mg/kg/injection, schedule: Q01DX005 (ip), vehicle: Klucel (hydroxypropylcellulose) (HPC)) was 108 % of control and 89 % of control and the T/C (dose: 3.12 mg/kg/injection, schedule: Q01DX005 (ip), vehicle: Klucel (hydroxypropylcellulose) (HPC)) was 103 % of control and 97 % of control. For the same compound, the T/C (dose: 6.25 mg/kg/injection, schedule: Q01DX005 (ip), vehicle: Klucel (hydroxypropylcellulose) (HPC)) was 94 % of control.
